The results in this text go back to patent US20190119204A1, “ROR GAMMA (RORy) MODULATORS” (Lead Pharma Holding B.V., priority 2016, published 2019).

For one assay, the target named is T1, RORγ (Homo sapiens, UniProt P51449).
T1 construct: expressed in transfected cells; host or cells: 293FT cells (Invitrogen), expression vector pFN26A (Promega)
T1 sequence (P51449 269-508 limits assumed): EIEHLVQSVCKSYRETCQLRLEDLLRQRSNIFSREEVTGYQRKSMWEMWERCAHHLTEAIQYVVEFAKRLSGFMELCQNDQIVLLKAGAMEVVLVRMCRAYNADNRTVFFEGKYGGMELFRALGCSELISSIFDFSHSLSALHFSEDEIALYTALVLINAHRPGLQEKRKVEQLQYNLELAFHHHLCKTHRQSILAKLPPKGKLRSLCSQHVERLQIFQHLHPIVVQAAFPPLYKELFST
The assay can be described thus: RORγ GAL4 reporter gene assay. Type of assay: cell-based. The note with it: 293FT cells, luciferase readout; average of 5 experiments; read-out: RORγ GAL4 reporter gene assay pIC50 Average (converted). On the procedure: Examples 2-3 of the present […] application and example No. 37 from WO2015/082533 were tested for their ability to inhibit RORγ activity in a RORγ GAL4 reporter gene assay.
A GAL4 one-hybrid reporter system employing luciferase readout was established to determine inhibition of RORγ in 293FT cells. The RORγ ligand-binding domain (LBD) was fused to the yeast GAL4 DNA binding domain (DBD) and placed under the control of the human cytomegalovirus (CMV) immediate early promoter, using expression vector pFN26A (Promega) and standard recombinant DNA cloning methods. To serve as a control in the assay, a similar vector was generated in which the GAL4-DBD was fused to Herpes simplex virus protein 16 (VP16), a constitutive transcriptional activator.
To monitor the inhibitory effect of compounds on RORγ, a transcriptional reporter construct was used. The pGL4.35 vector (Promega) contains nine copies of the GAL4 Upstream Activator Sequence (UAS). […]
The day after transfection, cells were plated into 96 well plates, test compound was added and the plates were incubated overnight. Subsequently, the firefly luciferase activity was quantified using luciferase detection reagent and luminescence readout. […]
For compound screening, the cells were harvested (as described above) and counted. […]

Assay [1] deals with T2, hERG (human Ether-à-go-go-Related Gene) potassium channel (Homo sapiens, UniProt Q12809).
T2 construct: expressed in transfected cells
T2 sequence (Q12809 whole entry): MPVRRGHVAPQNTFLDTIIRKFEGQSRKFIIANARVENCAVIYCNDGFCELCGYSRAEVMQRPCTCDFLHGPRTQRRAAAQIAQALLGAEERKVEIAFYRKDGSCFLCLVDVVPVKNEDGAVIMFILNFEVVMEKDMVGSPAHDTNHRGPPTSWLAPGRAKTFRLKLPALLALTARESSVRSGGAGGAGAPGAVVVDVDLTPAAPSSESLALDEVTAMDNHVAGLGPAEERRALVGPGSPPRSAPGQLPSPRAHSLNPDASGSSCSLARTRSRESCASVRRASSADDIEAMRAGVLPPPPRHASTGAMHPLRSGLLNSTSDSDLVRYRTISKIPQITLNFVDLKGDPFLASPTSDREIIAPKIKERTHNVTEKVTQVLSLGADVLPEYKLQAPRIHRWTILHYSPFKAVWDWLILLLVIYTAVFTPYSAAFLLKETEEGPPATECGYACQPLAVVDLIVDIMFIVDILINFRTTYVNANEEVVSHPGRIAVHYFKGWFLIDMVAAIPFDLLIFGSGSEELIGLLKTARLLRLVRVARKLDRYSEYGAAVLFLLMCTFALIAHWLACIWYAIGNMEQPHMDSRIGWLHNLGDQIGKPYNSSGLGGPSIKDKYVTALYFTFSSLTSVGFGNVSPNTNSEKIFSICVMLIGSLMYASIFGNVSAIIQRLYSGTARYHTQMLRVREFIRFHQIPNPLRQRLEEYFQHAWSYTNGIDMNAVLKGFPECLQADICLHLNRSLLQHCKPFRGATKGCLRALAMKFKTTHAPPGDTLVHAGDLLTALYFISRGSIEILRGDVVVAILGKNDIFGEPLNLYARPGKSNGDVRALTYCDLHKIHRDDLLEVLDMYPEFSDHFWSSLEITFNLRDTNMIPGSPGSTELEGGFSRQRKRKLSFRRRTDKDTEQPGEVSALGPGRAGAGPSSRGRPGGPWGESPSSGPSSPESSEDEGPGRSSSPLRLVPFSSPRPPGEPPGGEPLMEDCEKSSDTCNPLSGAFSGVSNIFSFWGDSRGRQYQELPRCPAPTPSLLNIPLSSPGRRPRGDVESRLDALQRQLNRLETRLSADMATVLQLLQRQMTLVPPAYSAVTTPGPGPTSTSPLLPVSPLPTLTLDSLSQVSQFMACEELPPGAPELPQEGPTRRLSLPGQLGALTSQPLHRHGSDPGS
Briefly: hERG channel patch-clamp assay. Type of assay: cell-based. The note with it: CHO cells stably expressing hERG, whole-cell patch-clamp, room temperature; read-out: hERG inhibition Assay IC50. On the procedure: The hERG assay, in which hERG is brought to expression in CHO cells, provides information of the interaction of a compound with the hERG channel. The amplitude of hERG potassium channel tail currents are recorded under control and the compound solution at different concentrations. Then the IC50 value is determined from the dose-response curve.
Examples 2-3 of the present application and example No. 37 of WO2015/082533 were tested in vitro against the hERG (human Ether-à-go-go-Related Gene) potassium channel.
Frozen CHO (Chinese hamster ovary) cells stably expressing hERG channels were thawed and seeded on glass coverslips in petri dishes. Cells were cultured in HAM's F-12 media supplemented with 10% fetal bovine serum, 100 IU/mL penicillin, 100 μg/mL streptomycin and 500 μg/mL G418 (Invitrogen, Carlsbad, Calif.) in an atmosphere of 95% air/5% CO2 at 37° C. CHO cells were ready for patch-clamping after culture for 1-5 days. hERG currents were recorded at room temperature using the whole-cell patch-clamp technique with an Axopatch 200B amplifier (Molecular Devices, Sunnyvale Calif.). […] Currents were analyzed using the pCLAMP suite of software (Molecular Devices). […]

On to `O=C(Cc1ccc(S(=O)(=O)CC2CC2)cc1)Nc1ccc([C@](O)(C(F)F)C(F)(F)F)cc1` [Example 3, (−)-2-[4-(cyclopropylmethylsulfonyl)phenyl]-N-[4-[(1S)-1-(difluoromethyl)-2,2,2-trifluoro-1-hydroxy-ethyl]phenyl]acetamide], for which the IC50 was 0.0126 µM at RORγ and 11.2 µM in assay [1].

In the case of `O=C(Cc1ccc(S(=O)(=O)CC2CC2)cc1)Nc1ccc([C@@](O)(C(F)F)C(F)(F)F)cc1` [Example 2, (+)-2-[4-(cyclopropylmethylsulfonyl)phenyl]-N-[4-[(1R)-1-(difluoromethyl)-2,2,2-trifluoro-1-hydroxy-ethyl]phenyl]acetamide], the IC50 on RORγ was 0.0398 µM; in assay [1] it was 14.2 µM.
